Reference: patent US11865125B2, “APKC inhibitors and methods of treating a neurodegenerative disease or disorder” (UNIVERSITY OF SOUTH FLORIDA, priority 2016, dated 2024)
“Also recorded” adds a separate entry of the source.

Legend:
[1] = test system: phospho-thr-231-tau; experiment: phospho-thr-231-tau levels in LA1-5s neuroblastoma cells; type: cell-based, human; conditions: LA1-5s cells
Method: (§1) Shown here are Mean±SEM (N=4) values relative to the mean initial basal or insulin-stimulated level of indicated immunoreactive protein/peptide. Asterisks: *, P<0.05; **, P<0.01; ***, P<0.001 (ANOVA).
(§2) Western Analyses. As described, Western analyses were conducted with rabbit antisera or mouse monoclonal antibodies (mMab), using: anti-aPKC (Santa Cruz Biotechnologies, Santa Cruz, CA); anti-phospho-threonine-560/555-PKC-ζ/λ/ι (Invitrogen, Carlsbad, CA); anti-p-serine-256-FoxO1 and anti-FoxO1 (Abnova, Walnut, CA); anti-Akt (mMab), anti-phospho-serine-473-Akt, anti-phospho-serine-9-GSK3P anti-GSK313, anti-phospho-serine-253-FoxO3a, anti-FoxO3a, anti-phospho-serine-256-FoxO1, anti-phospho-serine-193-FoxO4; anti-FoxO1, anti-phospho-serine-2448-mTOR, anti-mTOR, anti-β-amyloid (anti-5-10 kDa-Aβ1-40/42) and anti-amyloid precursor protein (anti-120 kDa-APP) (Cell Signaling Technologies, Danvers, MA); and anti-phospho-serine-202-tau, anti-phospho-threonine-231-tau (Gene Tex, Irvine, CA). Samples from experimental groups were compared on the same blots, and routinely checked with loading controls. Note that: insulin-sensitive 70 kDa aPKC is largely PKC-ζ in mouse brain and orthologous PKC-ι (98% aa homology) in monkey and other primate brains; brain PKC-ζ exists largely as a 50 kDa moiety that, lacking a regulatory domain, is constitutively-active and unresponsive to insulin.

[2] = biological target: T1, aPKC (Mus musculus, UniProt Q62074); conditions: previously seen, stated as similar; read-out: IC50, inhibition of aPKC activity in mouse adipocytes; cited from earlier work
T1 construct: previously seen in isolated human hepatocytes, mouse adipocytes and recombinant PKC-λ/ι [8,16]; endogenous in cells; host or cells: isolated mouse adipocytes
T1 sequence (Q62074 2-595 limits assumed): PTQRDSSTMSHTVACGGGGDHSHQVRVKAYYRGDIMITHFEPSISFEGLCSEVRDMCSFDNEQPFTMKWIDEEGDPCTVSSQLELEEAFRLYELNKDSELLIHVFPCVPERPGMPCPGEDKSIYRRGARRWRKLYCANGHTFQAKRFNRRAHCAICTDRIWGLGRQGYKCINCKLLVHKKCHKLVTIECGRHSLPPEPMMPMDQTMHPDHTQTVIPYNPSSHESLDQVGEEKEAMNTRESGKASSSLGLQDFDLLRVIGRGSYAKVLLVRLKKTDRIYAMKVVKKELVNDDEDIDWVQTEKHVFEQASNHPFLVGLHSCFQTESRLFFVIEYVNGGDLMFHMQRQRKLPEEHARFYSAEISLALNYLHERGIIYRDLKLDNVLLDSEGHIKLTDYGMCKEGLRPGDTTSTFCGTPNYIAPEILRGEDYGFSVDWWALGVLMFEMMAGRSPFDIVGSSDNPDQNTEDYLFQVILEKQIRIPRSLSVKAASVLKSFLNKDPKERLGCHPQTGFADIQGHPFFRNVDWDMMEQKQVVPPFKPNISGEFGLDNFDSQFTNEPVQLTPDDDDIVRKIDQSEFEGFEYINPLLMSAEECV

[3] = test system: β-secretase (BACE1); experiment: β-secretase activity (BACE1) in LA1-5s neuroblastoma cells; type: cell-based, human; conditions: LA1-5s cells
Method: (§3) Relative bar values in panel a are mean±SEM of 6 determinations. Asterisks: *, P<0.05; **, P<0.01; ***, P<0.001 (ANOVA). Values in panel b are means of 2-4 determinations.
as §1
(§4) β-Secretase Activity (BACE1; beta-site APP-cleaving enzyme-1). β-Secretase was measured was measured using a kit from Thermo-Fisher.

[4] = test system: Akt substrates, GSK3β and mTOR; experiment: phosphorylation of Akt substrates in LA1-5s neuroblastoma cells; type: cell-based, human; conditions: LA1-5s cells, 200 nM insulin, data not shown
Method: as §3, §2

[5] = test system: β-secretase (BACE1); experiment: brain β-secretase activity (BACE1) in mice; type: in vivo, mouse
Source text: Mouse Studies. Brain samples were obtained from normal and insulin-resistant mice and monkeys used previously, and includes mice originally used in studies of insulin signaling and resistance in liver: (a) 4-6 month old C57Bl/6 mice used in studies of high-fat-feeding [USF Vivarium] [6]; 4-6 month-old male C57Bl/6 ob/ob and lean ob+ mice (Jackson Labs, Bar Harbor, Maine); and (c) 10-12 month-old C57Bl/6 Het-MλKO mice [USF Vivarium] [8]. Males and females were comparably present in experimental groups, and sex didn't appreciably alter combined findings. Hepatic alterations, clinical characteristics and ameliorating effects of liver-selective aPKC inhibitors were reported previously. […] Where indicated, Het-MλKO were injected subcutaneously (SC) once daily for 8 days with saline or 1H-imidazole-4-carboxamide,5-amino]-(2,3-dihydroxy-4-[(phosphono-oxy)methyl]cyclopentane-[1R-(1a,2b,3b,4a)] (ICAPP) 0.4 mg/kg body weight) in saline, to inhibit hepatic aPKC, and thus diminish aPKC-dependent expression of hepatic gluconeogenic and lipogenic enzymes, and thereby reduce serum insulin levels to near-normal. Where indicated normal mice were given a single SC injection of saline or saline containing 1.5 mg/kg ICAPP to follow time-related alterations in brain signaling factors. Where indicated, mice were treated intraperitoneally (IP) with insulin (1 U/kg body weight) or vehicle 15-min before euthanization by administration of Xylazine/Ketamine, followed by whole body perfusion with phosphate-buffered saline and rapid removal of brain and other tissues.
Tissue Preparations. As described, mouse brains were hemisected sagittally, and one-half was frozen in liquid N2, stored at −80° C., and samples thereof were homogenized in buffer containing 0.25M sucrose, 20 mM Tris/HCl (pH, 7.5), 2 mmol/l EGTA, 2 mM EDTA, 1 mM phenlysulfonoylfluoride (PMSF), 20 μg/ml leupeptin, 10 μg/ml aprotinin, 2 mM Na4P2O7, 2 mM Na3VO4, 2 mM NaF, and 1 μM microcystin, and then supplemented with 1% TritonX-100, 0.6% Nonidet and 150 mM NaCl.
as §4

[6] = test system: conventional PKCs, novel PKCs, AMP-dependent protein kinase and Akt; conditions: cited from earlier work

NC(=O)c1ncn([C@@H]2C[C@H](COP(=O)(O)O)[C@@H](O)[C@H]2O)c1N [ICAPP]
effect on metformin-induced increase in phospho-thr-231-tau [1]: dose-dependently inhibited
IC50 [2]: 1 to 10 nM
effect on metformin-induced increase in β-secretase activity [3]: dose-dependently inhibited
effect on insulin-stimulated β-secretase activity ([3]; 200 nM insulin): dose-dependent decreases
effect on insulin-stimulated phosphorylation of Akt substrates [4]: without altering
resting/basal brain β-secretase activity ([5]; Het-MλKO mice, ICAPP 0.4 mg/kg s.c. once daily for 8 days): reduced resting/basal β-secretase activity to near-normal levels
acute insulin-stimulated increases in brain β-secretase activity ([5]; Het-MλKO mice, ICAPP 0.4 mg/kg s.c. once daily for 8 days, insulin 1 U/kg i.p. 15 min): fully blocked
insulin-dependent brain β-secretase activity ([5]; normal mice, single s.c. dose of ICAPP 1.5 mg/kg, insulin 1 U/kg i.p. 15 min before killing): time-related, well-correlated decreases; also recorded: blocked acute effects of insulin
inhibition of conventional PKCs, novel PKCs, AMP-dependent protein kinase and Akt [6]: Neither ICAPP [8] nor ACPD [6,7] inhibit
